The record followed here is patent US20250136572A1, “PARA ACYL SUBSTITUTED DIAZACYCLOHEXENE DERIVATIVES” (Renovel Innovations, Inc., priority 2021, published 2025).

The nature of test [1]: Oral glucose tolerance test in C57BL/6 mice on high fat diet. It is filed as in vivo. The note with it: for reduction in blood glucose at the peak oral glucose tolerance test of 30 minutes: compared with the control high fat diet group. Also noted: concentration or dose not given beside the values.
A short description of test [2]: Body weight in C57BL/6 mice on high fat diet. It is filed as in vivo, male C57BL/6 mice. The note with it: for decrease in body weight: compared to the high fat diet control group.
Test [3] in a line: Fasting blood glucose in mice on high fat diet. It is filed as in vivo. The following applies: compared with the control high fat diet group.
The next test is described as follows: Blood pressure in rats. The following applies: compared to the vehicle group. It is filed as in vivo.
Test [4] in a line: Triglycerides in high fructose fed hamsters. It is filed as in vivo. The note with it: compared with the high fructose fed group.
The subject of the next test is TNF-α. Nature of the test: TNF-α in LPS-treated mice. The following applies: from the LPS group. It is filed as in vivo.

Turning to `CCOC(=O)C1=C(C)NC(=O)NC1c1ccc(OC(=O)C(C)C)c(OC)c1` (stereo not shown) [Compound 3, 4-(4-Isobutyryloxy-3-methoxy-phenyl)-6-methyl-2-oxo-1,2,3,4-tetrahydro-pyrimidine-5-carboxylic acid ethyl ester], in test [1], the “reduction in blood glucose at the peak oral glucose tolerance test of 30 minutes” value (from here on “reduction in blood glucose … of 30 minutes”) came to 6%.

With `CCOC(=O)C1=C(C)NC(=O)NC1c1ccc(OC(=O)/C=C/c2ccccc2)cc1` (stereo not shown) [Compound 1, 6-Methyl-2-oxo-4-[4-(3-phenyl-acryloyloxy)-phenyl]-1,2,3,4-tetrahydro-pyrimidine-5-carboxylic acid ethyl ester], the “decrease in percent change in body weight” value in test [2] (FIG. 1B, compared with the control high fat diet group) was found to be 15%. Further, the “decrease in fasting blood glucose” value in test [3] is reported as 26%. Moreover, the “reduction in blood glucose … of 30 minutes” value in test [1] came out at 23%. Besides, in “Blood pressure in rats”, the “decrease in diastolic blood pressure” value stood at 8% and the “decrease in systolic blood pressure” value is listed as 4%. Besides, the decrease in triglycerides in test [4] worked out at 31%. In addition, the “decrease of TNF-α” value with TNF-α is recorded as 59%.

With `CCOC(=O)C1=C(C)NC(=S)NC1c1ccc(OC(=O)C(C)C)c(OC)c1` (stereo not shown) [Compound 4, 4-(4-Isobutyryloxy-3-methoxy-phenyl)-6-methyl-2-thioxo-1,2,3,4-tetrahydro-pyrimidine-5-carboxylic acid ethyl ester], in test [1], the “reduction in blood glucose … of 30 minutes” value was found to be 33%. Also, the “reduction in blood glucose at 120 minutes after glucose administration” value in test [1] (120 minutes after glucose administration) stood at 26%.

Regarding `CCOC(=O)C1=C(C)NC(=O)NC1c1ccc(OC(=O)/C=C/c2ccccc2)c(OC)c1` (stereo not shown) [Compound 2, 4-[3-Methoxy-4-(3-phenyl-acryloyloxy)-phenyl]-6-Methyl-2-oxo-1,2,3,4-tetrahydro-pyrimidine-5-carboxylic acid ethyl ester], the “decrease in body weight” value in test [2] (FIG. 6A, C57BL/6 mice) amounted to 5%; in test [2] (FIG. 6B, significant (P<0.0001)) it was 15%. In addition, the “reduction in blood glucose … of 30 minutes” value in test [1] is on record as 8%.
